Measurements reported in US5219859A, “Indole derivatives, preparation processes and medicinal products containing them” (Lipha, Lyonnaise Industrielle Pharmaceutique, priority 1991, dated 1993).

Columns and labels:
blood sugar level = assay: Test D: measurement of the hypoglycaemic effect; assay type: in vivo, male Swiss mice; conditions: mice, orally, dose of 60 mg.kg, one hour
Procedure: Test D: measurement of the hypoglycaemic effect: male Swiss mice weighing 26-28 g are treated orally with the test product. One hour later, the animals are sacrificed by exsanguination, and the blood sugar level is measured on an aliquot fraction of plasma by an enzymatic method employing glucose oxidase.

blood cholesterol level = assay: Test B: measurement of the hypocholesterolaemic effect in rodents; assay type: in vivo, male Wistar rats; conditions: Rattus norvegicus, po; rats, diet enriched with 2.5% of cholesterol for 8 days; orally, 24 hours and 4 hours before sacrifice; read-out: 25% effective dose (ED25), quantity of compound which lowers the blood cholesterol level by 25%
Procedure: Test B: measurement of the hypocholesterolaemic effect in rodents: male Wistar rats weighing 200-220 g are subjected to a diet enriched with 2.5% of cholesterol for 8 days; on the last two days, they are treated orally with the test product 24 hours and 4 hours before being sacrificed by exsanguination: the blood cholesterol level is evaluated on an aliquot fraction of serum by an automated enzymatic method. The results are expressed in the form of a 25% effective dose (ED25) in mg per kg of body weight, representing the quantity of compound which lowers the blood cholesterol level by 25%.

[1] = target: T1, aortic ACAT (acylcoenzyme A:cholesterol acyltransferase) (Oryctolagus cuniculus, UniProt A0A5F9CPP4); assay: Test A: measurement of the inhibition of aortic ACAT in vitro in rabbits; assay type: biochemical, male New Zealand rabbits; conditions: microsomal fraction of aorta of rabbits on a diet enriched with 1.25% of cholesterol; [^14 C]oleylcoenzyme A; read-out: 50% inhibitory concentration (IC50), concentration of compound which inhibits the ACAT activity by 50%
T1 construct: the aorta is removed, dissected and homogenised in order to prepare the microsomal fraction of it by ultracentrifugation; from tissue; host or cells: aorta microsomes of cholesterol-fed male New Zealand rabbits
T1 sequence (A0A5F9CPP4 1-555): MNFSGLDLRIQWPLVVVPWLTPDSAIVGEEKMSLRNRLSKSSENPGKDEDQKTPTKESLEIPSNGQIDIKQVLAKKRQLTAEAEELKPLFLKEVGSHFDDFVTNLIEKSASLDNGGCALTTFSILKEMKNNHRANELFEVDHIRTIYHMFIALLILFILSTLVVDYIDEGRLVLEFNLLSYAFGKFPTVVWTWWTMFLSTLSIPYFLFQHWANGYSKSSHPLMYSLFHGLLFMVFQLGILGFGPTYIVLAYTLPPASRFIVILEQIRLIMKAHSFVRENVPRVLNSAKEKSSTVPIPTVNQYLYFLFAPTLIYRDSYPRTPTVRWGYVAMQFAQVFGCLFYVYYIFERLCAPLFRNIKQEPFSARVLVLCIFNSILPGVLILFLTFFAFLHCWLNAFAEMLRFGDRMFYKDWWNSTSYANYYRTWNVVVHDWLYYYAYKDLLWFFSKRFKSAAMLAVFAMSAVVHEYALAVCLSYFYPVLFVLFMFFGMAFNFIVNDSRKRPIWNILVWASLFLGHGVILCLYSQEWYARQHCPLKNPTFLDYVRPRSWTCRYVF
Procedure: Test A: measurement of the inhibition of aortic ACAT in virro in rabbits: male New Zealand rabbits weighing between 2.2 and 2.5 kg, subjected beforehand for 15 days to a diet enriched with 1.25% of cholesterol, are sacrificed by cervical dislocation; the aorta is removed, dissected and homogenised in order to prepare the microsomal fraction of it by ultracentrifugation; these microsomes are incubated in the presence of [^14 C]oleylcoenzyme A in accordance with the method described by P. J. GILLIES et al., Exp. and Mol. Pathol., 1986, 44, 329-339; the lipids are extracted from the incubate with a methanol/chloroform mixture and the [^14 C]oleylcholesterol is separated by TLC: the latter compound represents a measure of the ACAT activity, and the results were expressed in the form of a 50% inhibitory concentration (IC50), representing the concentration of compound which inhibits the ACAT activity by 50%.

[2] = system: intestinal absorption of cholesterol; assay: Test C: measurement of the inhibition of intestinal absorption in rats; assay type: in vivo, male Wistar rats; conditions: Rattus norvegicus, po, fasted 24 hours, orally, with Triton WR-1339 I.V., [^3 H]cholesterol orally one hour later, blood three hours later, read-out: 50% effective dose (ED50), quantity of compound which inhibits the intestinal absorption of cholesterol by 50%
Procedure: Test C: measurement of the inhibition of intestinal absorption in rats; male Wistar rats weighing 230-250 g, fasted for 24 hours, are treated simultaneously with the test product administered orally and with Triton WR-1339 administered I.V.; one hour later, they are again treated orally with [^3 H]cholesterol; three hours later, under ether anaesthesia, 1 ml of blood is withdrawn from the animals' retro-orbital sinus: the blood radioactivity, evaluated on 0.1 ml of serum, represents a measure of the absorption of the [^3 H]cholesterol administered. The results are expressed in the form of a 50% effective dose (ED50) in mg per kg of body weight, representing the quantity of compound which inhibits the intestinal absorption of cholesterol by 50%.

IC50 [1]: 0.046 µM
Compound: CC(C)c1cccc(C(C)C)c1NC(=O)NCC1(c2cn(C)c3ccccc23)CCCC1 [compound No. 1, N^1-(2,6-Diisopropylphenyl)-N^2-[1-(1-methyl-3-indolyl)-cyclopentylmethyl]urea]
significant lowering of the blood sugar level (blood sugar level): 21%
ED25 (blood cholesterol level): 0.098 mg/kg
ED50 [2]: 0.176 mg/kg
